Consider 20 compounds from patent US20230295140A1, “INHIBITORS OF VAP-1” (Acucela Inc., priority 2021, published 2023).

As a reminder, the IC50 is the point on the concentration scale where inhibition reaches its midpoint. Lower therefore signals inhibition by little substance.

A value given as a limit tells only on which side of the number the result lay.

Common to all, as to assay type: biochemical
One assay addresses rhMAO-B (Homo sapiens (Human), UniProt P27338). The experiment in a line: MAO-Glo assay, MAO-B inhibition. The procedure: (§1) The capability of compounds described herein to inhibit MAO was determined using a modified Promega MAO-Glo™ assay kit. The substrate ((4S)-4,5-dihydro-2-(6-hydroxybenzothiazolyl)-4-thiazolecarboxylic acid) was converted by MAO to produce methyl ester luciferin. The luciferin was then converted by luciferase to produce oxyluciferin and light. The light was measured using a luminescence setting on the plate reader. A standard curve was prepared by serially diluting luciferin in reaction buffer. The standard kit reaction buffer was used—100 mM HEPES (pH 7.5), 5% glycerol. The substrate was dispensed into the wells so that the final concentration for MAO-A inhibition assay would be 10 μM and MAO-B inhibition assay would be […]. Inhibitors were diluted in DMSO to 4× and distributed to the appropriate wells. Clorgyline and Deprenyl served as positive controls. rhMAO-A and rhMAO-B were purchased from Sigma. MAO-A or MAO-B was added to the appropriate wells. The plate was incubated for 1 hour, at room temperature with gentle shaking (90 rpm). The detection agent was added at equal volume (48 μL detection agent to 48 μL reaction). The plate was incubated for 20 minutes, at room temperature with gentle shaking (90 rpm). The plate luminescence was read. Data processing was performed using Prism software.
(§2) The capability of compounds described herein to inhibit MAO was determined using a modified Promega MAO-Glo™ assay. Test compounds, substrate and enzyme were incubated per manufacturer instructions for 1 hour, at room temperature with gentle shaking (90 rpm) before addition of detection agent. The detection agent was added at equal volume (48 μL detection agent to 48 μL reaction). The plate was incubated for 20 minutes, at room temperature with gentle shaking (90 rpm). The plate luminescence was read. Data processing was performed using Prism software.

In the next assay the target is rhVAP-1 (Homo sapiens (Human), UniProt Q16853). The experiment in a line: VAP-1 fluorometric assay (Amplex Red/HRP, benzylamine substrate). The conditions noted are these: class symbols, ranges defined in μM. The procedure: The capability of compounds described herein to inhibit the enzymatic activity of vascular adhesion protein-1 (VAP-1) was determined by fluorometric assay. The assay procedure provided by R&D Systems was modified slightly for use as an inhibitor screening assay. The assay measured the H2O2 generated from the oxidative deamination of benzylamine by rhVAP-1 by converting Amplex® Red to the fluorescent product, resorufin, via horseradish peroxidase (HRP) and H2O2. Reaction buffer was 10 mM NaHCO3, pH 7.4. A standard curve was prepared by serially diluting H2O2 in reaction buffer. A 10 μM solution of resorufin was prepared in reaction buffer and was dispensed to 2 wells. These wells served as positive control for maximum fluorescence. Reaction buffer was added to the individual wells so that the final volume in each well was 100 μL. Amplex Red was diluted to 1 mM in reaction buffer. A 10 U stock of HRP was prepared in reaction buffer. A reaction cocktail was prepared by mixing equal parts 1 mM Amplex Red with 10 U HRP with 3 parts reaction buffers. The reaction cocktail was added to the appropriate wells, so that that final concentration in the well was 0.05 mM Amplex Red and 0.5 U HRP. A 200 μM solution of benzylamine was prepared in reaction buffer. Benzylamine was added to the appropriate wells so that the final concentration was 50 μM. Inhibitors were diluted in DMSO to 20× and distributed to the appropriate wells. LJP-1207 served a positive control. rhVAP-1 was purchased from R&D Systems. The concentration used for each lot was determined so that the activity was equal to the first lot. Two wells were left blank as controls. The plate was incubated for 30 minutes at 37° C., protected from light under foil. The plate was read at 530/35 emission and 590/35 excitation. Data processing was performed using Excel and Prism software.
rhVAP-1, sequence (Q16853 whole entry): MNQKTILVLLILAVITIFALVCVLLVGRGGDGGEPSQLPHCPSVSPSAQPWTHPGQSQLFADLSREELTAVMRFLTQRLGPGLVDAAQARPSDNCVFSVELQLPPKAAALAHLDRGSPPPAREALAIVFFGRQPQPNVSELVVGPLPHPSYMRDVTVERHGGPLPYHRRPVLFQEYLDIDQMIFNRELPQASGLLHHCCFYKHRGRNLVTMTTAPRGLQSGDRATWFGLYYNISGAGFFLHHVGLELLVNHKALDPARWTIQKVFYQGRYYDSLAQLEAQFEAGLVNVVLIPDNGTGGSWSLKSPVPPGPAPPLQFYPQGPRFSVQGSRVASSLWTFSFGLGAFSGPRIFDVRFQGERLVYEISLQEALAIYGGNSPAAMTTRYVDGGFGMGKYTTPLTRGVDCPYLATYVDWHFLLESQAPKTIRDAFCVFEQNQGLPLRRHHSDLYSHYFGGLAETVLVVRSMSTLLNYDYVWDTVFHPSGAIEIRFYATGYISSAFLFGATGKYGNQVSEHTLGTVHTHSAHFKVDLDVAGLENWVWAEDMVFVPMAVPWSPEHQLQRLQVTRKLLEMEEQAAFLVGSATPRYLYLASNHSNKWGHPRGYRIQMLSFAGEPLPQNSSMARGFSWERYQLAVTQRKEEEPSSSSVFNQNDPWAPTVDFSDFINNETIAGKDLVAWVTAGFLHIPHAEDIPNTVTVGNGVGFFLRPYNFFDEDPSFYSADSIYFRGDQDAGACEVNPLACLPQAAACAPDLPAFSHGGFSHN
The capability of compounds described herein to inhibit the enzymatic activity of vascular adhesion protein-1 (VAP-1) was determined by fluorometric assay. The assay procedure provided by R&D Systems was modified slightly for use as an inhibitor screening assay. The assay measured the H2O2 generated from the oxidative deamination of benzylamine by rhVAP-1 by converting Amplex® Red to the fluorescent product, resorufin, via horseradish peroxidase (HRP) and H2O2. Amplex Red, HRP, Benzylamine, inhibitors (with DMSO as vehicle, 0.5% v/v) and rhVAP-1 were added to the wells. Assay was conducted in 10 mM NaHCO3, pH 7.4. A standard curve was prepared by serially diluting H2O2 in reaction buffer. The plate was incubated for 30 minutes at 37° C., protected from light under foil. The plate was read at 530/35 emission and 590/35 excitation. Data processing was performed using Prism software.

Another assay concerns the target rhMAO-A (Homo sapiens (Human), UniProt P21397). As to the kind of experiment: MAO-Glo assay, MAO-A inhibition. As for the experimental part:
as §1, §2

[1] abbreviates: class symbols, ranges defined in μM.

rhMAO-A, sequence (P21397 whole entry): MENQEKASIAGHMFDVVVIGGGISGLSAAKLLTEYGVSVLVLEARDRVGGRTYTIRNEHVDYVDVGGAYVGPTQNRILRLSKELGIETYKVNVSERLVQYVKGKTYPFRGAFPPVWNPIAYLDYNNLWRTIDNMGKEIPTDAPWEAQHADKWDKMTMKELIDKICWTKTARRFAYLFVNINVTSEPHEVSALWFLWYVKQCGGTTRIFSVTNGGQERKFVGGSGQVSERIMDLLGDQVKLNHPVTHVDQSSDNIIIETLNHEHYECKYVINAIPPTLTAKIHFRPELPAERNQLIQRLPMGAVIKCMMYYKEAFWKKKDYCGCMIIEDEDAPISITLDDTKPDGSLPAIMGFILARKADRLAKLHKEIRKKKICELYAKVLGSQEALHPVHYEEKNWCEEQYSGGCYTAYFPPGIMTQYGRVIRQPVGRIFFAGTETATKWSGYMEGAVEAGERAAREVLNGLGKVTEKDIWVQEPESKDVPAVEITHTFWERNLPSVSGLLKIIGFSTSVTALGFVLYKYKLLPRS
rhMAO-B, sequence (P27338 whole entry): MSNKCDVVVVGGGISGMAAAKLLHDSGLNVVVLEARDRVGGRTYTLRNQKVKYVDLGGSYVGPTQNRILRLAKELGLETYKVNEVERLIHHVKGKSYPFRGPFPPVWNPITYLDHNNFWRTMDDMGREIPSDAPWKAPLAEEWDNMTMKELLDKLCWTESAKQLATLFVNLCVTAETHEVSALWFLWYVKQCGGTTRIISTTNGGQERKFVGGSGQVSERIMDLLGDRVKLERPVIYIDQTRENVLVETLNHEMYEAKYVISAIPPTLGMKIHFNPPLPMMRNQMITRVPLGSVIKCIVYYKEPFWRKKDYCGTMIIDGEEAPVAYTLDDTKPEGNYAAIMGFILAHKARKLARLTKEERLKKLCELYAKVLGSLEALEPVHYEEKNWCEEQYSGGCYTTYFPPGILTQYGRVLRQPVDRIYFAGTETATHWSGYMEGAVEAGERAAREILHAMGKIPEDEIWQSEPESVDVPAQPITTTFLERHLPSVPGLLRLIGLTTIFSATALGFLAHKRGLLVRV

On to `NC/C(=C\F)COc1ccc2nc(CCCCc3ccccc3)oc2c1` [Example 35, 4-methylbenzenesulfonate], for which the values for the IC50 at rhMAO-B (setting [1]), against rhVAP-1 and against rhMAO-A (setting [1]) were under 0.1 µM, under 0.1 µM and 10 to 30 µM, respectively.
On to `CC1(C)CCC(c2nc3ccc(OC/C(=C/F)CN)cc3o2)CC1` [Example 36, (E)-2-(((2-(4,4-dimethylcyclohexyl)benzo[d]oxazol-6-yl)oxy)methyl)-3-fluoroprop-2-en-1-amine 4-methylbenzenesulfonate], for which the results for the IC50 against rhMAO-B (setting [1]), against rhVAP-1 and against rhMAO-A (setting [1]) were 0.1 to 1 µM, under 0.1 µM and 10 to 30 µM, respectively.
The matching figures for `NC/C(=C\F)COc1ccc2nc(C3CCCC3)oc2c1` [Example 37, (E)-2-(((2-cyclopentylbenzo[d]oxazol-6-yl)oxy)methyl)-3-fluoroprop-2-en-1-amine 4-methylbenzenesulfonate]: 0.1 to 1 µM, under 0.1 µM and 1 to 10 µM.
For `CCCCc1nc2ccc(OCCC(=CF)CN)cc2o1` [Example 38, 4-((2-butylbenzo[d]oxazol-6-yl)oxy)-2-(fluoromethylene)butan-1-amine 4-methylbenzenesulfonate], the half-maximal inhibitory concentration (IC50) against rhMAO-B (setting [1]) was under 0.1 µM; against rhVAP-1 it was under 0.1 µM; at rhMAO-A (setting [1]), 0.1 to 1 µM.
Turning to `CC(C)(C)Nc1nc2ccc(OC/C(=C/F)CN)cc2o1` [Example 39, (E)-6-((2-(aminomethyl)-3-fluoroallyl)oxy)-N-(tert-butyl)benzo[d]oxazol-2-amine 4-methylbenzenesulfonate], the IC50 at rhMAO-B (setting [1]) was 1 to 10 µM; at rhVAP-1, under 0.1 µM; against rhMAO-A (setting [1]), 10 to 30 µM.
On to `CCCCc1nc2ccc(C(=O)NC/C(=C/F)CN)cc2o1` [Example 40, (E)-N-(2-(aminomethyl)-3-fluoroallyl)-2-butylbenzo[d]oxazole-6-carboxamide 4-methylbenzenesulfonate], for which the IC50 at rhMAO-B (setting [1]) lay in the range of 10 to 30 µM; against rhVAP-1 it was 0.1 to 1 µM; on rhMAO-A (setting [1]), 10 to 30 µM.
Take `NC/C(=C\F)COc1ccc2nc(C3CCC(c4ccccc4)CC3)oc2c1` (stereo not drawn) [Example 41, (E)-3-fluoro-2-(((2-(4-phenylcyclohexyl)benzo[d]oxazol-6-yl)oxy)methyl)prop-2-en-1-amine 4-methylbenzenesulfonate]: the IC50 against rhMAO-B (setting [1]) is 0.1 to 1 µM; on rhVAP-1 it was under 0.1 µM; against rhMAO-A (setting [1]), 10 to 30 µM.
With `CCCC(C)c1nc2ccc(OC/C(=C/F)CN)cc2o1` (stereo not drawn) [Example 43, (E)-3-fluoro-2-(((2-(pentan-2-yl)benzo[d]oxazol-6-yl)oxy)methyl)prop-2-en-1-amine 4-methylbenzenesulfonate], the half-inhibitory concentration (IC50) against rhMAO-B (setting [1]) was 0.1 to 1 µM; on rhVAP-1, under 0.1 µM; on rhMAO-A (setting [1]), 10 to 30 µM.
Take `CCCCc1nc2ccc(NC/C(=C\F)CN)cc2o1` [Example 44, (Z)—N1-(2-butylbenzo[d]oxazol-6-yl)-2-(fluoromethylene)propane-1,3-diamine 4-methylbenzenesulfonate]: the IC50 on rhMAO-B (setting [1]) was 0.1 to 1 µM; at rhVAP-1, under 0.1 µM; against rhMAO-A (setting [1]) it was 10 to 30 µM.
`NC/C(=C\F)COc1ccc2nc(NCCc3ccccc3)oc2c1` [Example 45, (E)-6-((2-(aminomethyl)-3-fluoroallyl)oxy)-N-phenethylbenzo[d]oxazol-2-amine 4-methylbenzenesulfonate]: the concentration for half-maximal inhibition (IC50) against rhMAO-B (setting [1]) was 0.1 to 1 µM; at rhVAP-1, under 0.1 µM; against rhMAO-A (setting [1]), 10 to 30 µM.
On to `CCCN(C)c1nc2ccc(OC/C(=C/F)CN)cc2o1` [Example 46, (E)-6-((2-(aminomethyl)-3-fluoroallyl)oxy)-N-methyl-N-propylbenzo[d]oxazol-2-amine 4-methylbenzenesulfonate], for which the results for the IC50 against rhMAO-B (setting [1]), against rhVAP-1 and at rhMAO-A (setting [1]) were 1 to 10 µM, under 0.1 µM and 1 to 10 µM, respectively.
In the case of `NC/C(=C\F)COc1ccc2nc(NCCO)oc2c1` [Example 47, (E)-2-((6-((2-(aminomethyl)-3-fluoroallyl)oxy)benzo[d]oxazol-2-yl)amino)ethan-1-ol 4-methylbenzenesulfonate], the IC50 on rhMAO-B (setting [1]) is 10 to 30 µM; at rhVAP-1, under 0.1 µM; on rhMAO-A (setting [1]) it was 10 to 30 µM.
As for `CC(C)(Nc1nc2ccc(OC/C(=C/F)CN)cc2o1)c1ccccc1` [Example 48, (E)-6-((2-(aminomethyl)-3-fluoroallyl)oxy)-N-(2-phenylpropan-2-yl)benzo[d]oxazol-2-amine 4-methylbenzenesulfonate], the figures for the IC50 against rhMAO-B (setting [1]), against rhVAP-1 and against rhMAO-A (setting [1]) were 10 to 30 µM, under 0.1 µM and 10 to 30 µM, respectively.
In the case of `CN(Cc1ccccc1)c1nc2ccc(OC/C(=C/F)CN)cc2o1` [Example 49, (E)-6-((2-(aminomethyl)-3-fluoroallyl)oxy)-N-benzyl-N-methylbenzo[d]oxazol-2-amine 4-methylbenzenesulfonate], the IC50 is 0.1 to 1 µM against rhMAO-B (setting [1]), under 0.1 µM against rhVAP-1 and 10 to 30 µM against rhMAO-A (setting [1]).
`CC(C)(C)c1nc2ccc(OC/C(=C/F)CN)cc2o1` [Example 50, (E)-2-(((2-(tert-butyl)benzo[d]oxazol-6-yl)oxy)methyl)-3-fluoroprop-2-en-1-amine 4-methylbenzenesulfonate]: the half-inhibitory concentration (IC50) was 1 to 10 µM at rhMAO-B (setting [1]), under 0.1 µM against rhVAP-1 and 10 to 30 µM against rhMAO-A (setting [1]).
`CC(C)(C)CCCc1nc2ccc(OC/C(=C/F)CN)cc2o1` [Example 51, (E)-2-(((2-(4,4-dimethylpentyl)benzo[d]oxazol-6-yl)oxy)methyl)-3-fluoroprop-2-en-1-amine 4-methylbenzenesulfonate]: the IC50 at rhMAO-B (setting [1]) is 0.1 to 1 µM; against rhVAP-1, under 0.1 µM; at rhMAO-A (setting [1]), 1 to 10 µM.
As for `CNC(=O)CN(Cc1ccccc1)c1nc2ccc(OC/C(=C/F)CN)cc2o1` [Example 53, (E)-2-((6-((2-(aminomethyl)-3-fluoroallyl)oxy)benzo[d]oxazol-2-yl)(benzyl)amino)-N-methylacetamide 4-methylbenzenesulfonate], the concentration for half-maximal inhibition (IC50) was over 50 µM against rhMAO-B (bound printed in cell), under 0.1 µM at rhVAP-1 and over 50 µM against rhMAO-A (bound printed in cell).
Take `NC/C(=C\F)COc1ccc2nc(C34CC5CC(CC(C5)C3)C4)oc2c1` [Example 54, (E)-2-(((2-((3r,5r,7r)-adamantan-1-yl)benzo[d]oxazol-6-yl)oxy)methyl)-3-fluoroprop-2-en-1-amine 4-methylbenzenesulfonate]: the values for the 50% inhibitory concentration (IC50) at rhMAO-B (setting [1]), at rhVAP-1 and against rhMAO-A (setting [1]) were 1 to 10 µM, under 0.1 µM and 1 to 10 µM, respectively.
With `Cc1ccc(CNc2nc3ccc(OC/C(=C/F)CN)cc3o2)cn1` [Example 55, (E)-6-((2-(aminomethyl)-3-fluoroallyl)oxy)-N-((6-methylpyridin-3-yl)methyl)benzo[d]oxazol-2-amine 4-methylbenzenesulfonate], the IC50 on rhMAO-B (setting [1]) is 1 to 10 µM; at rhVAP-1, under 0.1 µM; at rhMAO-A (bound printed in cell) it was over 35 µM.
As for `CNC(=O)C(Cc1ccccc1)Nc1nc2ccc(OC/C(=C\F)CN)cc2o1` (stereo not drawn) [Example 56, (Z)-2-((6-((2-(aminomethyl)-3-fluoroallyl)oxy)benzo[d]oxazol-2-yl)amino)-N-methyl-3-phenylpropanamide 4-methylbenzenesulfonate], the figures for the IC50 against rhMAO-B (setting [1]), on rhVAP-1 and at rhMAO-A (bound printed in cell) were 10 to 30 µM, under 0.1 µM and over 50 µM, respectively.
